In article PMC9271048, “Probing strigolactone perception mechanisms with rationally designed small-molecule agonists stimulating germination of root parasitic weeds” (Nature Communications, 2022):
Where two headings read alike, the source gives them in different places.

What was measured:
ShHTL7 [1] = molecular target: T1, ShHTL7 (Striga hermonthica, UniProt A0A0M3PNA2); test: ShHTL7-hydrolysis reaction analysis (HPLC); assay type: biochemical; conditions: authors' response to reviewer
Description: Compounds 4a, (R)- and (S)-4a, 4g-i, and rac-GR24 were dissolved in DMSO and prepared as stock solution ([…]) just before use. A 200 μL of the reaction solution consisting of PBS buffer (pH 7.3), 10 μM samples, and 10 μg recombinant ShHTL7 or its mutants was incubated at 30 °C for 30 min; with the reaction solution (200 μL) containing PBS buffer (pH 7.3) and 10 μM samples as the blank control[40],[52]. Subsequently, the reaction was terminated by adding 200 μL of methanol, and then the reaction mixture was shaken for 10 s and centrifuged at 5310 × g for 60 s. The supernatant was filtered and the remaining amount of samples was analyzed by HPLC. The relative percentages of hydrolysis were obtained by using the amount of compounds in blank control as reference.
Supplementary Fig. 11. Hydrolysis of 4a, (R)-4a, (S)-4a, 4g-i, and rac-GR24 by ShHTL7 at 30 °C for 30 min. The remaining amounts of compounds in recombinant ShHTL7 protein and buffer solution were determined by HPLC analysis. The relative percentages of hydrolysis were calculated by using the amount of compounds in the buffer as reference. The error bar indicates SD (n = 3 biologically independent experiments).
(§1) (1 picture or pasted object on this page, not shown here)

ShHTL7 [2] = molecular target: T1, ShHTL7; test: biochemical; assay type: binding
Description: We used a sensitive, high-throughput Surface plasmon resonance (SPR) method to examine the binding affinities of the 51 candidates to the recombinant ShHTL7 protein, which was immobilized on the CM5 sensor chip. rac-GR24 was used as a positive control.
The interactions of small molecules with recombinant ShHTL7 were evaluated using the Biacore T200 system (GE Healthcare, USA) at 25 °C[47]. The purified ShHTL7 protein was immobilized on a CM5 sensor chip using the standard amine coupling procedure. […] PBS-P (10 mM phosphate buffer, 2.7 mM KCl, 137 mM NaCl, 0.05% Surfactant P20) containing 0.5% DMSO was used as the running buffer. For the screening experiments, candidates with different structures at 50 μM in the running buffer were injected individually at a flow rate of 30 μL min^−1. For binding affinity studies, compounds with different concentrations in running buffer were used. During the experiments, both the contact and dissociation times were set as 1 min. Data analysis was performed using the Biacore Evaluation Software (T200 Version 2.0). The affinity values (KD) were obtained by the kinetics analysis or the steady-state affinity method.

ShHTL7 [3] = molecular target: T1, ShHTL7; test: Lineweaver-Burk plot analysis of ShHTL7 inhibition (YLG); assay type: biochemical; conditions: ShHTL7-mediated hydrolysis of YLG; no significant change of Vmax
Description: 0.1 Å width; second, the number of data points of each bin was counted; third, the density of each bin is calculated using the number of D5′C-OG-DNE2-HG data points fall in the corresponding bin being divided by the total number of the distance-distance data points; last, the Z(A,D) (shown in Equation 1) was constructed by fitting the data with the two-dimensional Gaussian function using the non-linear surface fitting methods in Origin Lab.
In this equation, Z is the conformation probability density of D5′C-OG and DNE2-HG in the calculation system. µ is the mean of the normal distribution. σ is the standard deviation.
The PPC of each system was calculated using the bivariate integration of the corresponding CPDF over the interval 1.5–3.8 Å for D5′C-OG, and 1.6–3.5 Å for DNE2-HG with Equation 2 using Matlab software (The Math Works, Natick, MA).
The final PPC value of each system was the averaged data of every 200 ns in the MD simulation.
The structure figures were analyzed by PYMOL software8.
The structures of (S)-4a were constructed and optimized by Sybyl 6.9 (Tripos Inc., St. Louis, MO).
DFT calculations of (S)-4a were performed by Gaussian 09 program package at b3lyp/6-31g(d) level9.
The results were analyzed by GaussView 5.0.
Determination of the Inhibition Model
For Lineweaver-Burk plot analysis, the competitive inhibition of ShHTL7 by compounds 1, 2g, and 2h was performed by using YLG as the substrate at 25 °C. The excitation and emission […]
Supplementary Fig. 7. Lineweaver−Burk plots for the inhibition of ShHTL7 by compounds 1 (a), 2g (b), and 2h (c). Error bar indicates SD (n = 3 biologically independent experiments).
as §1
[1] Yao, R. et al. DWARF14 is a non-canonical hormone receptor for strigolactone. Nature 536, 469– […]
[2] de Saint Germain, A. et al. An histidine covalent receptor and butenolide complex mediates strigolactone perception.
[3] […]
A: We have evaluated inhibitory kinetics of the three representative compounds 1, 2g, and 2h on ShHTL7-mediated hydrolysis of YLG. […]

P. aegyptiaca seeds = test: P. aegyptiaca seed germination assay; assay type: in vivo, Phelipanche aegyptiaca; conditions: for germination of P. aegyptiaca seeds, source data average: 10 μM, Fig. 1d source data, average of 3; for P. aegyptiaca germination(%): Supplementary Table 1, compounds tested at 10 μM, means ± SD, n = 3
Description: P. aegyptiaca seeds were harvested from Xinjiang province, China in 2017. The seeds were surface sterilized using 1% NaClO solution for 2 min and then washed with distilled water six times. For seed germination assay, about 20 pieces of glass fiber-filter paper discs (15 mm diameter, Whatman GF/B) were placed separately on two layers of filter papers (9 cm diameter, Whatman) in a Petri dish. Five milliliters of distilled water was added to each Petri dish to wet the papers. Approximately 40–90 sterilized seeds were spread onto each glass fiber-filter paper disc. After the seeds were conditioned in the dark at 25 °C for 4 days[48], glass fiber-filter paper discs were blotted dry on filter papers (9 cm) and transferred to the wells of 24-well cell culture plates. The testing compounds were dissolved in acetone and diluted with H2O (VH2O/Vacetone = 999/1) just before use[49]. rac-GR24 and 1‰ acetone solution were used as positive and negative controls, respectively. One hundred microliters of the test solution was added to each well of the plates, and all treatments were performed in three biological repeats. The plates were sealed and incubated in the dark at 25 °C for a week. The experiments were performed at least three times. The germinated seeds were observed by using an electronic magnifier at ×20 magnification.

ShHTL7 [4] = molecular target: T1, ShHTL7; test: Competitive inhibition of ShHTL7 with Yoshimulactone Green (YLG) as substrate; assay type: biochemical; conditions: YLG used as the substrate, means ± SD, n = 3
Description: Based on the structural feature of the lead compound 2h, we selected three regions to perform further modification (Supplementary Fig. 6), to try to further improve bioactivity. Insertion of a carbonyl group between the bicyclo[2.2.1]hept-5-en-2-yl group and the piperazine ring was detrimental to binding affinity (Supplementary Fig. 6, region A). Removal of an oxygen atom in region B was found unfavorable to binding affinity as well. Therefore, we focused on modifying the benzene ring (region C) for 2h. A series of compounds with different groups at region C was synthesized (Supplementary Scheme 1). […] As SPR just measures the binding ability, another independent assay by using Yoshimulactone Green (YLG) as the fluorescent substrate was performed to determine the half-maximal inhibitory concentration (IC50) of these compounds against ShHTL7[22].
The excitation and emission wavelengths of YLG are 480 and 520 nm, respectively. We used a fluorescence spectrophotometer (CARY Eclipse) to detect the fluorescence intensity change of YLG during the enzymatic hydrolysis assay process. All the testing compounds and YLG were dissolved in DMSO and prepared as stock solutions just before use. […] The changes of fluorescence at 520 nm of each well were recorded every 1 min for 30 min. Using the reaction mixture without adding enzyme and tested compounds as the background control. After subtracting the background hydrolysis, a linear fluorescence increase in 8 min was used for further inspection. The IC50 values were determined via fitting relative inhibition percentages with the varying concentrations of compounds in Microsoft Excel.

T1 sequence (A0A0M3PNA2 entry or part of it): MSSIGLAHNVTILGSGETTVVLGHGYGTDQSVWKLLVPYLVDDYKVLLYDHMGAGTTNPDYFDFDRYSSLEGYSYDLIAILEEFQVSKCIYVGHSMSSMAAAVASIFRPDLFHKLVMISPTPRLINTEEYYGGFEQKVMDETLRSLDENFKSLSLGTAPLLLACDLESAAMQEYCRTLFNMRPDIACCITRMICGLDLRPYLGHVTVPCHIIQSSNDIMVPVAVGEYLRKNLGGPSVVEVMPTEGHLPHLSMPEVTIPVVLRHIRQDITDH

Structure (SMILES) | hydrolysis by ShHTL7 (ShHTL7 [1]) | Kd (ShHTL7 [2]) | inhibition manner (Lineweaver-Burk plot) (ShHTL7 [3]) | germination of P. aegyptiaca seeds, source data average (P. aegyptiaca seeds) | P. aegyptiaca germination(%) (P. aegyptiaca seeds) | IC50 (ShHTL7 [4]; IC50 (Supplementary Table 1)) | IC50 (ShHTL7 [4]; read-out: IC50 (Supplementary Table 1))
O=C(COc1ccc(Cl)cc1)N1CCN(CC2CC=CCC2)CC1 (stereo not drawn) [2g] | could not be hydrolyzed by ShHTL7 | 1.02 ± 0.11 µM | in a competitive manner |  |  |  | 
O=C(c1ccc([N+](=O)[O-])cc1)N1CCN(CC2CC3C=CC2C3)CC1 (stereo not drawn) [2e] | could not be hydrolyzed by ShHTL7 | 8.77 ± 0.11 µM |  |  |  |  | 
Cc1ccc(OCC(=O)N2CCN(CC3CC4C=CC3C4)CC2)cc1 (stereo not drawn) [2h] |  | 0.96 µM | in a competitive manner | 25.888% | 27.4% | 22 ± 4.97 µM | 
O=C(c1ccc(F)cc1)N1CCN(CC2CC=CCC2)CC1 (stereo not drawn) [compound 1, (4-(cyclohex-3-en-1-ylmethyl)piperazin-1-yl)(4-fluorophenyl)methanone] |  | 13.3 ± 1.4 µM | in a competitive manner | 40.0744% | 39.4% |  | 15.9 ± 1.47 µM
